From BindingDB's records for doi:10.1021/jm1012193 (University of Bonn, 2012)

Molecular target: T1, P2X purinoceptor 2 (Rattus norvegicus, UniProt P49653)
T1 sequence (P49653 whole entry): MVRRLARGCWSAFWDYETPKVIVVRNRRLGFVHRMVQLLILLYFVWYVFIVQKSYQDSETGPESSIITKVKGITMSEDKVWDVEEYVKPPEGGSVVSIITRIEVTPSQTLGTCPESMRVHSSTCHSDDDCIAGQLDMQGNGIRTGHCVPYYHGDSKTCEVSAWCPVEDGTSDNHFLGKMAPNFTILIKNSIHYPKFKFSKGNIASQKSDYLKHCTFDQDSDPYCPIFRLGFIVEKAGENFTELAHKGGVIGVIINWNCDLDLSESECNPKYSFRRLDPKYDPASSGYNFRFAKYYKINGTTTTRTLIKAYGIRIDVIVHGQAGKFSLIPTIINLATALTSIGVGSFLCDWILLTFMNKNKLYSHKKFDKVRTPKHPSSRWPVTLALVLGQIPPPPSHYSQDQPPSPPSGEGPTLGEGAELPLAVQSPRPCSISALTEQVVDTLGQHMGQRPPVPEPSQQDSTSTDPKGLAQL
Experiment: Antagonist activity against rat […] receptor expressed in Xenopus laevis oocyte assessed as inhibition of alpha, beta-meATP-induced inward current by two-electrode voltage-clamp electrophysiology

Work on Nc1ncnc2c1ncn2C1OC(COP(=O)(O)OP(=O)(O)OP(=O)(O)O)C2OC3(OC21)C([N+](=O)[O-])=CC([N+](=O)[O-])=CC3=[N+]([O-])[O-] (stereo not drawn) [sodium(3a'R,4'R,6'R,6a'R)-4'-(6-amino-9H-purin-9-yl)-2,6-dinitro-6'-((oxido(oxido(phosphonatooxy)phosphoryloxy)phosphoryloxy)methyl)-3a',4',6',6a'-tetrahydrospiro[cyclohexa[2,5]diene-1,2'-furo[3,4-d][1,3]dioxole]-4-ylideneazinate] yielded an IC50 of 4 µM.
